Results published in PubChem BioAssay (NCI).
“And” between values parts separate entries of the source, which are not always exact repeats. Equal entries are not always repeated.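 Results reflect a 48-hour exposure of cells in 96-well plates to compound at five concentrations. GI50 marks 50% less growth. Definition used: TGI = concentration required for complete inhibition of growth.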

Columns and labels:
Assay in all cases: DTP human tumour cell line panel, 48 h
[1] = test system: 786-0 renal
[2] = test system: A498 renal
[3] = test system: A549 NSCLC
[4] = test system: ACHN renal
[5] = test system: CAKI-1 renal
[6] = test system: CCRF-CEM leukemia
[7] = test system: COLO 205 colon
[8] = test system: DLD-1 colon
[9] = test system: DMS 114 small cell lung
[10] = test system: DMS 273 small cell lung
[11] = test system: EKVX NSCLC
[12] = test system: HCC-2998 colon
[13] = test system: HCT-116 colon
[14] = test system: HCT-15 colon
[15] = test system: HL-60(TB) leukemia
[16] = test system: HOP-18 NSCLC
[17] = test system: HOP-62 NSCLC
[18] = test system: HOP-92 NSCLC
[19] = test system: HT29 colon
[20] = test system: IGROV1 ovarian
[21] = test system: K-562 leukemia
[22] = test system: KM12 colon
[23] = test system: LOX IMVI melanoma
[24] = test system: M14 melanoma
[25] = test system: M19-MEL melanoma
[26] = test system: MALME-3M melanoma
[27] = test system: MOLT-4 leukemia
[28] = test system: NCI-H226 lung
[29] = test system: NCI-H23 lung
[30] = test system: NCI-H460 lung
[31] = test system: OVCAR-3 ovarian
[32] = test system: OVCAR-4 ovarian
[33] = test system: OVCAR-5 ovarian
[34] = test system: OVCAR-8 ovarian
[35] = test system: RPMI-8226 leukemia
[36] = test system: RXF 393 renal
[37] = test system: RXF-631 renal
[38] = test system: SF-268 CNS
[39] = test system: SF-295 CNS
[40] = test system: SF-539 CNS
[41] = test system: SK-MEL-2 melanoma
[42] = test system: SK-MEL-28 melanoma
[43] = test system: SK-MEL-5 melanoma
[44] = test system: SK-OV-3 ovarian
[45] = test system: SN12C renal
[46] = test system: SNB-19 CNS
[47] = test system: SNB-75 CNS
[48] = test system: SNB-78 CNS
[49] = test system: SW-620 colon
[50] = test system: TK-10 renal
[51] = test system: U251 CNS
[52] = test system: UACC-257 melanoma
[53] = test system: UACC-62 melanoma
[54] = test system: UO-31 renal
[55] = test system: KM20L2 colon
[56] = test system: LXFL 529 NSCLC
[57] = test system: MCF7 breast
[58] = test system: MDA-MB-231 breast
[59] = test system: MDA-MB-435
[60] = test system: MDA-N
[61] = test system: NCI-H522 lung
[62] = test system: PC-3 prostate
[63] = test system: SR leukemia

SMILES: O=C1CCC(O)=C1N=Nc1cc(Cl)cc(Cl)c1
- TGI [1]: > 100 µM
- TGI [2]: 91 µM
- TGI [3]: > 100 µM
- TGI [4]: > 100 µM
- TGI [5]: > 100 µM
- TGI [6]: > 100 µM
- TGI [7]: > 100 µM
- TGI [8]: > 100 µM
- TGI [9]: > 100 µM
- TGI [10]: > 100 µM
- TGI [11]: > 100 µM
- TGI [12]: > 100 µM
- TGI [13]: > 100 µM
- TGI [14]: > 100 µM
- TGI [15]: > 100 µM
- TGI [16]: > 100 µM
- TGI [17]: > 100 µM
- TGI [18]: > 100 µM
- TGI [19]: > 100 µM
- TGI [20]: > 100 µM
- TGI [21]: > 100 µM
- TGI [22]: > 100 µM
- TGI [23]: > 100 µM
- TGI [24]: > 100 µM
- TGI [25]: > 100 µM
- TGI [26]: > 100 µM
- TGI [27]: > 100 µM
- TGI [28]: > 100 µM
- TGI [29]: > 100 µM
- TGI [30]: > 100 µM
- TGI [31]: 98.2 µM
- TGI [32]: > 100 µM
- TGI [33]: > 100 µM
- TGI [34]: > 100 µM
- TGI [35]: > 100 µM
- TGI [36]: > 100 µM
- TGI [37]: > 100 µM
- TGI [38]: > 100 µM
- TGI [39]: > 100 µM
- TGI [40]: > 100 µM
- TGI [41]: > 100 µM
- TGI [42]: > 100 µM
- TGI [43]: > 100 µM
- TGI [44]: > 100 µM
- TGI [45]: > 100 µM
- TGI [46]: > 100 µM
- TGI [47]: > 100 µM
- TGI [48]: > 100 µM
- TGI [49]: > 100 µM
- TGI [50]: > 100 µM
- TGI [51]: > 100 µM
- TGI [52]: > 100 µM
- TGI [53]: > 100 µM
- TGI [54]: > 100 µM

SMILES: CN1CCN(CCn2c3c4ccccc4ccc3c3oc(=O)c4ccccc4c32)CC1
- GI50 [1]: 1.96 µM
- TGI [1]: 3.76 µM and 4.07 µM
- GI50 [2]: 18.7 µM
- TGI [2]: 38.3 µM
- GI50 [3]: 2.91 µM
- TGI [3]: 8.92 µM and 8.94 µM
- TGI [4]: 7.42 µM
- TGI [5]: 16.7 µM
- TGI [6]: 3.2 µM and 3.94 µM
- GI50 [7]: 2 µM
- TGI [7]: 3.4 µM and 5.14 µM
- TGI [8]: 6.13 µM
- TGI [9]: 3.84 µM
- TGI [11]: 25.5 µM
- GI50 [12]: 4.22 µM
- TGI [12]: 3.74 µM and 18.7 µM
- GI50 [13]: 1.55 µM
- TGI [13]: 2.88 µM and 3.79 µM
- GI50 [14]: 1.61 µM
- TGI [14]: 3.21 µM and 7.92 µM
- TGI [15]: 3.47 µM
- TGI [16]: 25.1 µM
- GI50 [17]: 10.1 µM
- TGI [17]: 4.65 µM and 23.7 µM
- GI50 [18]: 3.44 µM
- TGI [18]: 17 µM
- GI50 [19]: 1.65 µM
- TGI [19]: 3.3 µM and 2.71 µM
- GI50 [20]: > 1 µM
- TGI [20]: > 1 µM and 31.1 µM
- TGI [21]: 2.89 µM and 4.29 µM
- GI50 [22]: 2.13 µM
- TGI [22]: 4.54 µM and 6.56 µM
- TGI [55]: 7.79 µM
- GI50 [23]: 1.61 µM and 4.84 µM
- TGI [56]: 8.07 µM
- GI50 [24]: 1.94 µM
- TGI [24]: 3.43 µM and 3.29 µM
- TGI [25]: 24.7 µM
- TGI [26]: 29.3 µM
- TGI [57]: 3.03 µM
- TGI [58]: 3.59 µM
- TGI [59]: 3.35 µM
- TGI [60]: 2.95 µM
- TGI [27]: 3.2 µM and 4.38 µM
- TGI [28]: 33.5 µM
- GI50 [29]: 1.92 µM
- TGI [29]: 3.72 µM and 15.7 µM
- GI50 [30]: 1.46 µM
- TGI [30]: 4.09 µM and 2.95 µM
- GI50 [61]: 1.68 µM
- TGI [61]: 3.29 µM and 10.4 µM
- TGI [31]: 23.7 µM
- TGI [32]: 6.85 µM
- TGI [33]: 10.4 µM
- GI50 [34]: 2.32 µM
- TGI [34]: 5.13 µM and 3.37 µM
- TGI [62]: 4.59 µM
- GI50 [35]: 1.84 µM
- TGI [35]: 3.79 µM and 15 µM
- GI50 [36]: 5.75 µM
- TGI [36]: > 1 µM and 19.9 µM
- TGI [37]: 17.8 µM
- GI50 [38]: 5.03 µM
- TGI [38]: 14 µM
- GI50 [39]: 1.88 µM
- TGI [39]: 4.5 µM and 9.45 µM
- TGI [40]: 3.47 µM and 3.08 µM
- TGI [41]: 27.7 µM
- GI50 [42]: 1.99 µM
- TGI [42]: 3.47 µM and 9.37 µM
- TGI [43]: 3.41 µM
- TGI [44]: 27.4 µM
- GI50 [45]: 4.44 µM
- TGI [45]: 3.05 µM
- GI50 [46]: 1.5 µM
- TGI [46]: 7.24 µM and 10.9 µM
- TGI [47]: 16.6 µM
- TGI [48]: 16.4 µM
- TGI [63]: 3.13 µM
- TGI [49]: 4.29 µM and 5.33 µM
- TGI [50]: 22.5 µM
- TGI [51]: 6.25 µM and 6.92 µM
- GI50 [52]: > 1 µM
- TGI [52]: > 1 µM and 2.96 µM
- GI50 [53]: 2.14 µM
- TGI [53]: 4.74 µM and 5.11 µM
- GI50 [54]: 3.08 µM
- TGI [54]: 11.9 µM
